According to US10413583B2, “Synthetic substrates for enzymes that catalyze reactions of modified cysteines and related methods” (The University of Chicago, priority 2016, dated 2019):

Assays:
APT1 = biological target: T1, APT1 (Homo sapiens, UniProt O75608); test: In vitro kinetic assays of RDP-1 and RDP-2 with APT1; assay type: biochemical; details: 1 μM probe, 200 nM enzyme, 20 min
T1 construct: His-tag; made in house; host or cells: E. coli ROSETTA DE3
Description: (§1) 100 μL of 400 nM of APT1 or APT2, or buffer without added enzymes, were added to buffer (20 mM HEPES, 150 mM NaCl, 0.1% Triton X-100, pH 7.4, degassed by bubbling N2 through the solution for 1 h) and prewarmed to 37° C. in a heating block for 5 min. The buffer solutions were then added using a multichannel pipet to a black-walled clear-bottom 96-well plate (Nunc, Roskilde, Denmark) containing 100 μL of 2 μM RDP-1 or RDP-2 in buffer (20 mM HEPES, 150 mM NaCl, 0.1% Triton X-100, pH 7.4, 0.15% DMSO) that had been pre-warmed in the plate reader at 37° C. for 5 min, resulting in a final concentration of 200 nM APT1 or APT2, 1 μM RDP-1 or RDP-2, and 0.1% DMSO. Fluorescent intensities λex1=430/24 nm, λem1=470/24 nm; λex2=480/20, λem2=575/40; gain=75; No. of flashes=8) were obtained as a ratio of em1/em2 in kinetic mode in 30 s intervals for 30 min.

APT2 = biological target: T2, APT2 (Homo sapiens, UniProt O95372); test: In vitro kinetic assays of RDP-1 and RDP-2 with APT2; assay type: biochemical; details: 1 μM probe, 200 nM enzyme, 20 min
T2 construct: His-tag; made in house; host or cells: E. coli ROSETTA DE3
Description: as §1

[1] = tested on: catalytically inactive APTs (APT1(S119A), APT2(S122A)); test: In vitro kinetic assays of RDP-1 and RDP-2 with catalytically inactive enzymes; assay type: biochemical, human; details: 10 times more APT1(S119A) and APT2(S122A) enzyme
[2] = Stability of RDP-1 and RDP-2 with biological reductant (GSH); assay type: physicochemical; details: 1 μM probe, 20 mM GSH, pH 7.4 buffer
Description: RDP-1 or RDP-2 were added to buffer (20 mM HEPES, 150 mM NaCl, 0.1% Triton X-100, pH 7.4, degassed by bubbling N2 through the solution for 1 h) prewarmed to 37° C. in a heating block for 5 min containing no reducing agent or GSH using a multichannel pipet to at least three wells of a black-walled clear-bottom 96-well plate (Nunc, Roskilde, Denmark; Final concentration: 1 μM RDP-1/RDP-2, 20 mM GSH, 20 mM HEPES, 150 mM NaCl, 0.1% Triton X-100, pH 7.4, 4.1% DMSO). Fluorescent intensities (λex1=430/25 nm, λeml=470/24 nm; λex2=480/20, λem2=575/40; gain=75; No. of flashes=10) were obtained as a ratio of em1/em2 in kinetic mode in 30 s intervals for 30 min.

HEK293T cells = test: Fluorescence imaging of RDP-1 and RDP-2 with HEK293T cells; assay type: cell-based, human; details: 1 μM probe for 10 min
Description: HEK293T were plated with […] of DMEM (Gibco, Gaithersburg, Md., United States of America; High Glucose, Glutamax, 10% FBS) a four well chambered imaging dish (D35C4-20-1.5-N, Cellvis, Mountain View, Calif., United States of America) which were precoated with 4 μg Poly-D-lysine (30-70 kilodalton (KDa), Alfa Aesar, Haverhill, Mass., United States of America) for 2 h at room temperature or overnight at 4° C. and grown to ca. 80% confluence prior to imaging. 30 min before the addition of the RDP, the cell culture media was removed and cells were washed with 500 μL of serum-free DMEM (Gibco, Gaithersburg, Md., United States of America, High Glucose, Glutamax, no FBS). The media was then replaced with 500 μL of serum-free DMEM containing 100 nM Mitotracker Deep Red (Thermo Fisher Scientific, Waltham, Mass., United States of America; to assist in focusing and processing) and either 0.1% DMSO carrier as a control or Palm B, ML348, or ML349 in DMSO and incubated for 30 min at 37° C. and 5% CO2. The media was removed, the cells were washed with 500 μL of Live Cell Imaging Solution (Thermo Fisher Scientific, Waltham, Mass., United States of America), and 500 μL of 1 μM RDP-1 or RDP-2 along with the appropriate inhibitor or DMSO as control in Live Cell Imaging Solution was added to each well. After incubation for 10 min at 37° C. and 5% CO2, the cells were washed with 500 μL Live Cell Imaging Solution and 500 μL of Live Cell Imaging Solution containing DMSO or the appropriate inhibitor was added to the cells immediately before images were obtained on an inverted epi-fluorescence microscope (Olympus IX83; Olympus Corporation, Tokyo, Japan) attached with EMCCD camera (Photometrics EVOLVE™ Delta; Photometrics, Tucson, Ariz., United States of America) with 40× oil objective (N/A 1.3) for RDP-1 (excitation filter 1 430/24 nm, dichroic chroma 89007, emission filter 1 470/24 nm, exposure time 100 ms, EM gain 80, excitation filter 2 480/20 nm, dichroic chroma 49014, emission filter 2 575/40 nm, exposure time 70 ms, EM gain 50) or for RDP-2 (excitation filter 1 430/24 nm, dichroic chroma 89007, emission filter 1 470/24 nm, exposure time 70 ms, EM gain 50, excitation filter 2 480/20, dichroic chroma 49014, emission filter 2 575/40 nm, exposure time 50 ms, EM gain 30), brightfield (exposure time 50 ms, EM gain 30), and MitoTracker Deep Red: (excitation filter 640/30 nm, emission filter 705/72 nm, dichroic chroma 89016, exposure time 15 ms, EM gain 15). Analyses were performed in ImageJ as described below. Each experiment was repeated at least three separate times with identical results.
The probe channel data were expressed as a ratio of the blue channel divided by the green channel and normalized to the average fluorescence intensity of the control conditions. To eliminate errors from autofluorescence, the images were thresholded using the bluer channel images at the same minimum level that included the maximum number of cells in focus (as determined visually by the mitocondrial dye) while limiting the signal from areas where cells are not present. The average value of all nonzero pixels from the blue channel:green channel ratio image were calculated in ImageJ for three different measurements from each experiment. The percent deprotected was estimated by imaging RDP-1/2 in buffer (20 mM HEPES, 150 mM NaCl, 0.1% Triton X-100, pH 7.4, 0.1% DMSO) and for dye deprotected with 20 mM DTT in buffer (20 mM HEPES, 150 mM NaCl, 0.1% Triton X-100, pH 7.4, 0.1% DMSO) for 1 h at room temperature before aliquoted into individual tubes and stored at −80° C. A fresh aliquot of the solution was thawed for each experiment and diluted to 250 nM (RDP-1) or 500 nM (RDP-2) in buffer (20 mM HEPES, 150 mM NaCl, 0.1% Triton X-100, pH 7.4, 10 mM DTT) and allowed to equilibrate for 30 m before being imaged. […]

T1 sequence (O75608 whole entry): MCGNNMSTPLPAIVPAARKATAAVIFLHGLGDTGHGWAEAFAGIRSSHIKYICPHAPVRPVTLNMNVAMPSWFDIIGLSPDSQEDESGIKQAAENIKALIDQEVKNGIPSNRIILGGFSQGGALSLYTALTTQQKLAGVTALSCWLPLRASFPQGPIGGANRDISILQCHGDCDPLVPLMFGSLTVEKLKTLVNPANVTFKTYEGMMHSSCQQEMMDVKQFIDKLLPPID
T2 sequence (O95372 whole entry): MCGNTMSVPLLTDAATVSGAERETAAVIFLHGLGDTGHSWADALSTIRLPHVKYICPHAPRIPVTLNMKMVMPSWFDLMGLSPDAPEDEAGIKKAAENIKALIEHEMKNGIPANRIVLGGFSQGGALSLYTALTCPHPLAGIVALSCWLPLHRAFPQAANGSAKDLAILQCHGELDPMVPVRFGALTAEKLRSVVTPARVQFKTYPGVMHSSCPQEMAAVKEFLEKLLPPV

CCCCCCCC(=O)SC[C@@H](C(=O)NC)N(C)C(=O)/C(C#N)=C/c1c(C)c2cc3c4c(c2oc1=O)CCCN4CCC3 [RDP-1, (2E)-2-cyano-N-methyl-3-{6-methyl-4-oxo-3-oxa-13-azatetracyclo[7.7.1.0^2,7.0^13,17]heptadeca-1,5,7,9(17)-tetraen-5-yl}-N-[(1R)-1-(methylcarbamoyl)-2-(octanoylsulfanyl)ethyl]prop-2-enamide]
ratio change of ratiometric response (APT1): 0.7 to 34 | ratio change of ratiometric response (APT2): 0.7 to 34 | response to catalytically inactive APTs [1]: Neither RDP-1 nor RDP-2 responds | response to 20 mM glutathione [2]: Neither RDP-1 nor RDP-2 responds | depalmitoylation of probe (percent deprotected dye) (HEK293T cells): about 28%

CCCCCCCC(=O)SC[C@@H](C(=O)N[C@@H](CCCCN)C(=O)OC)N(C)C(=O)/C(C#N)=C/c1c(C)c2cc3c4c(c2oc1=O)CCCN4CCC3 [RDP-2, (5S)-5-[(2R)-2-[(2E)-2-cyano-N-methyl-3-{6-methyl-4-oxo-3-oxa-13-azatetracyclo[7.7.1.0^2,7.0^13,17]heptadeca-1,5,7,9(17)-tetraen-5-yl}prop-2-enamido]-3-(octanoylsulfanyl)propanamido]-6-methoxy-6-oxohexan-1-aminium]
ratio change of ratiometric response (APT1): 1.9 to 16 | ratio change of ratiometric response (APT2): 1.9 to 16 | response to catalytically inactive APTs [1]: Neither RDP-1 nor RDP-2 responds | response to 20 mM glutathione [2]: Neither RDP-1 nor RDP-2 responds | depalmitoylation of probe (percent deprotected dye) (HEK293T cells): ~18%
